Measured values from paper PMC12563431, “The Esc(1-21)-1c Antimicrobial Peptide Inhibits a Specific Transcriptional Activator of the MexAB–OprM Efflux Pump in P. aeruginosa” (International Journal of Molecular Sciences, 2025).
Where no end group is shown, it is not given here. [ ]: non-standard residue; d: D form.

B2: His6-Q9I5H3 (natural protein)
chain: MRILLVEDHPQLAESVVQALKGAGWTVDLLQDGVAADLALASEEYALAILDVGLPRMDGFEVLARLRGRGKTLPVLMLTARGEVKDRVHGLNLGADDYLAKPFELSELEARVKALLRRSVLGGEQLQRCGALVYDLGTRRFSLDEQPLTLTSREQAVLEAMIARPGRVMSKEQLAAQVFGLDEEASADAIEIYVHRLRKKLEGGAVRIVTFRGLGYLLEAQGD
notes: also called recombinant Q9I5H3 protein; PA0756; source: E. coli BL21 (pET28a), purified (His-Trap FF IMAC; gel filtration on Superdex 75)

Experiments:
[1] = target: Q9I5H3; assay: Fluorescence binding titration of Q9I5H3 dimer with Esc(1-21)-1c; set-up: species or system P. aeruginosa; settings: intrinsic protein fluorescence, λexc 280 nm, emission 337 nm; 35 μM Q9I5H3 dimer, peptide 1.5 to 50 µM; 50 mM Tris-HCl pH 8.0, 150 mM NaCl, 20 °C; duplicate; one site specific binding fit; read-out: dissociation constant of the Esc(1-21)-1c–Q9I5H3 complex
Method: The interaction of the Esc(1-21)-1c peptide with Q9I5H3 was experimentally evaluated by fluorescence-based binding experiments. The dimeric form of the Q9I5H3 protein, purified by gel filtration, was titrated with increasing concentrations of Esc(1-21)-1c, and changes in the fluorescence emission of the protein were monitored (Figure 5).
Fluorescence experiments were performed on a Fluoromax-4 spectrofluorometer from Horiba Scientific, Piscataway, NJ, USA, using 1 cm optical path-length quartz cell under controlled temperature conditions (Peltier control system at 20 °C). Titrations were carried out in 50 mM Tris-HCl, pH 8.0 and 150 mM NaCl. Excitation wavelength used for the fluorescence titrations was 280 nm, and the spectra were recorded in the range 300–500 nm (slit 3 nm). Titrations were carried out at a fixed concentration (35 μM) of Q9I5H3 by adding increasing amounts of Esc(1-21)-1c peptide (from 1.5 to 50 µM), and the fluorescence emission was monitored at 337 nm. The experiments were performed in duplicate. The change in the fluorescence intensity was reported as a function of the peptide concentration and the data fitted with the “one site specific binding” equation of GraphPad Prism 9 (GraphPad Software LLC, La Jolla, CA, USA).

[2] = system: Q9I5H3–DNA complex; assay: EMSA competition assay, Q9I5H3 binding to MexAB–OprM promoter DNA duplex; assay type: biochemical, P. aeruginosa; settings: 30 μM Q9I5H3 pre-incubated with peptide (50 to 250 μM) 10 min at 25 °C, then 0.05 µM target DNA duplex for 20 min; 1.5% agarose gel, GelRed
Method: The putative effect of the Esc(1-21)-1c peptide on the Q9I5H3–DNA interaction was investigated by a competition assay in which the recombinant Q9I5H3 protein was pre-incubated with increasing concentrations of the peptide before adding the DNA probe. The protein–DNA complexes in the presence of different concentrations of Esc(1-21)-1c were again examined by EMSA.
The interaction of Q9I5H3 protein with DNA was investigated by EMSA experiments using the target DNA duplex as well as a control duplex-forming sequence generally used as a model of standard B-DNA duplex, the so-called Dickerson dodecamer (Supplementary Table S1). Sense and antisense oligonucleotides were annealed by incubation at 95 °C for 5 min and then gradual cooling to room temperature. Different concentrations of proteins were incubated with the DNA duplexes (0.05 µM) for 30 min at 25 °C in 20 µL of 25 mM HEPES pH 7.6, containing 50 mM KCl, 12.5 mM MgCl2, 1 mM DTT, 20% glycerol, 0.1% Triton.
For the assays, 30 μM of protein was pre-incubated with increasing concentrations of Esc(1-21)-1c for 10 min at 25 °C. Following this pre-incubation, the DNA duplex was added, and the mixture was incubated for additional 20 minutes under standard EMSA conditions.
All samples were separated on 1.5% agarose gel in Tris-borate-EDTA (TBE) running buffer at room temperature, using GelRed as dye. […]

[3] = system: MexA, MexB, and OprM proteins; settings: sub-MIC dosages; cited from earlier work
Text: In the past years, we characterized the biological properties of a derivative of the frog-skin AMP esculentin-1a, namely Esc(1-21)-1c of sequence GIFSKLAGKKIKN^dLLI^dSGLKG-NH2 containing two D-amino acids, i.e., Leu14 and Ser17. […] Therefore, in-depth investigations are imperative to unravel the specific molecular mechanisms accounting for the downregulation of MexAB efflux pump by Esc(1-21)-1c. Here, we explored the intracellular mechanism of Esc(1-21)-1c at the molecular level by the identification of its putative interactors in P. aeruginosa. Functional proteomics approaches allowed us to ident ...

[4] = system: P. aeruginosa biofilm; settings: levels below the MIC; cited from earlier work
Text: (§1) In the past years, we characterized the biological properties of a derivative of the frog-skin AMP esculentin-1a, namely Esc(1-21)-1c of sequence GIFSKLAGKKIKN^dLLI^dSGLKG-NH2 containing two D-amino acids, i.e., Leu14 and Ser17. […] Furthermore, very recent studies have provided new insights into the global impact of Esc (1-21)-1c on P. ...

[5] = system: P. aeruginosa; settings: levels below the MIC; cited from earlier work
Text: as §1

[6] = target: T1, Q9I5H3 (probable two-component response regulator, QseB homolog) (Pseudomonas aeruginosa, UniProt Q9I5H3 1-223); assay: EMSA; protein 5-70 uM, DNA 0.05 uM; settings: protein: recombinant; tags: N-terminal His6 (pET28a); chain copies: 2; label: none (GelRed stain); blunt
T1 sequence: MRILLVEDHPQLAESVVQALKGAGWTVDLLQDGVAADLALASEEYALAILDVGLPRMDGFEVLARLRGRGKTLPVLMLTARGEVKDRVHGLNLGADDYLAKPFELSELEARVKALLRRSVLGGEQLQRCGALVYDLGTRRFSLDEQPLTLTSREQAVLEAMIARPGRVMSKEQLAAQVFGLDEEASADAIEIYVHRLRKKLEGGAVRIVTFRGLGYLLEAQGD

[7] = target: the molecule itself; assay: SEC; Superdex 75 10/300 GL calibrated with standard proteins; 50 mM Tris-HCl pH 8.0, 150 mM NaCl; peaks at 7.8 mL and 11.5 mL; monomer and dimer
[8] = target: B2; assay: other fluorescence titration; intrinsic protein fluorescence (excitation 280 nm, emission 337 nm); 35 μM Q9I5H3 (dimeric form from gel filtration) fixed, Esc(1-21)-1c added from 1.5 to 50 µM; 50 mM Tris-HCl pH 8.0, 150 mM NaCl, 20 °C; duplicate; one site specific binding fit; settings: both partners purified

With “GIFSKLAGKKIKN^dLLI^dSGLKG-NH2 [Esc(1-21)-1c, derivative of the frog-skin AMP esculentin-1a containing two D-amino acids, Leu14 and Ser17]” as the molecule, how does the Kd [1] read?
The Kd was 10 ± 0.98 µM.

And the “peptide concentration at which the shifted Q9I5H3–DNA complex band completely disappeared” value [2]?
Its value is 200 µM.

What about the “effect on MexA, MexB, and OprM proteins” value [3] of the same molecule?
Its value is “significant downregulatory effect”.

What about the “effect on P. aeruginosa biofilm formation” value [4] of the same molecule?
The value was “capability to prevent P. aeruginosa biofilm formation”.

And the “effect with the antibiotic Aztreonam in inhibiting growth and killing P. aeruginosa” value [5]?
Its value is “synergic effect”.

B1: MexAB-OprM (MexA) promoter target duplex (dsDNA)
DNA 1: CGAGTAAACCTAATGTAAATGTGGTTGATC
DNA 2: GATCAACCACATTTACATTAGGTTTACTCG
Does B1 bind [6]?
Result: binds

With B2 as the molecule, how does the “stoichiometry N” value [7] read?
Its value is 2.

B3: Esc(1-21)-1c (peptide)
peptide: GIFSKLAGKKIKN[dL]LI[dS]GLKG-NH2
notes: also called Esc(1-21)-1c peptide; AMP
With B3 as the molecule, how does the Kd [8] read?
Its Kd is 10 ± 0.98 µM.
